Values of other authors in PubChem BioAssay AID1259409 (Chemical Carcinogenesis Research Information System (CCRIS), 2018).
Several values for one entry are separate records, joined by “and”; a condition that tells them apart may be missing. Equal entries are not always repeated.

Test system: rodent chemically induced tumor inhibition, incidence and multiplicity
Assay: CCRIS tumor inhibitor studies

**Q.** For `Cc1ccc(-c2cc(C(F)(F)F)nn2-c2ccc(S(N)(=O)=O)cc2)cc1`, which “tumour outcome (control, treated, inhibition, significance)” value (Carcinogen: N-BUTYL-N-N(4-4-HYDROXYBUTYL)-NITROSAMINE [3817-11-6], Dose [Inhibitor]: 200 MG/KG IN DIET FOR 36 WK BEGINNING 1 WK PRIOR TO FIRST CARCINOGEN DOSE (STUDY DURATION: 36 WK), Route [Inhibitor]: ORAL, Species: MOUSE, Strain/Sex: B6D2F1/MALE, Target Tissue: Type of Lesion: URINARY BLADDER: TUMOR, Dose [Carcinogen]: 7.5 MG IN 0.1 ML 20% ETHANOL 1X/WK FOR 12 WK (STUDY DURATION: 36 WK), Promoter: NONE) is on record?
**A.** 51%, 29%, 43%, significance level not shown

**Q.** And the “tumour outcome (control, treated, inhibition, significance)” value (Carcinogen: N-BUTYL-N-N(4-4-HYDROXYBUTYL)-NITROSAMINE [3817-11-6], Dose [Inhibitor]: 500 MG/KG IN DIET FOR 27 WK BEGINNING 1 WK POST LAST CARCINOGEN DOSE (STUDY DURATION: 8 MONTHS), Route [Inhibitor]: ORAL, Species: RAT, Strain/Sex: F344/FEMALE, Target Tissue: Type of Lesion: URINARY BLADDER: TUMOR, Dose [Carcinogen]: 150 MG IN 0.5 ML 20% ETHANOL 2X/WK FOR 8 WK (STUDY DURATION: 8 MONTHS), Promoter: NONE)?
**A.** 57%, 4%, 93%, significance level not shown

**Q.** And the “tumour outcome (control, treated, inhibition, significance)” value (Carcinogen: N-BUTYL-N-N(4-4-HYDROXYBUTYL)-NITROSAMINE [3817-11-6], Dose [Inhibitor]: 500 MG/KG IN DIET FOR 36 WK BEGINNING 1 WK PRIOR TO FIRST CARCINOGEN DOSE (STUDY DURATION: 36 WK), Route [Inhibitor]: ORAL, Species: MOUSE, Strain/Sex: B6D2F1/MALE, Target Tissue: Type of Lesion: URINARY BLADDER: TUMOR, Dose [Carcinogen]: 7.5 MG IN 0.1 ML 20% ETHANOL 1X/WK FOR 12 WK (STUDY DURATION: 36 WK), Promoter: NONE)?
**A.** 51%, 24%, 53%, significance level not shown

**Q.** And the “tumour outcome (control, treated, inhibition, significance)” value (Carcinogen: N-BUTYL-N-N(4-4-HYDROXYBUTYL)-NITROSAMINE [3817-11-6], Dose [Inhibitor]: 500 MG/KG IN DIET FOR 36 WK BEGINNING 1 WK PRIOR TO FIRST CARCINOGEN DOSE (STUDY DURATION: 36 WK), Route [Inhibitor]: ORAL, Species: RAT, Strain/Sex: F344/FEMALE, Target Tissue: Type of Lesion: URINARY BLADDER: TUMOR, Dose [Carcinogen]: 150 MG IN 0.5 ML 20% ETHANOL 2X/WK FOR 8 WK (STUDY DURATION: 36 WK), Promoter: NONE)?
**A.** 17/30 (57%), 4/28 (14%), 75%, significance level not shown

**Q.** And the “tumour outcome (control, treated, inhibition, significance)” value (Carcinogen: N-BUTYL-N-N(4-4-HYDROXYBUTYL)-NITROSAMINE [3817-11-6], Dose [Inhibitor]: 1000 MG/KG IN DIET FOR 27 WK BEGINNING 1 WK POST LAST CARCINOGEN DOSE (STUDY DURATION: 8 MONTHS), Route [Inhibitor]: ORAL, Species: RAT, Strain/Sex: F344/FEMALE, Target Tissue: Type of Lesion: URINARY BLADDER: TUMOR, Dose [Carcinogen]: 150 MG IN 0.5 ML 20% ETHANOL 2X/WK FOR 8 WK (STUDY DURATION: 8 MONTHS), Promoter: NONE)?
**A.** 57%, 0%, 100%, significance level not shown

**Q.** And the “tumour outcome (control, treated, inhibition, significance)” value (Carcinogen: N-BUTYL-N-N(4-4-HYDROXYBUTYL)-NITROSAMINE [3817-11-6], Dose [Inhibitor]: 1000 MG/KG IN DIET FOR 36 WK BEGINNING 1 WK PRIOR TO FIRST CARCINOGEN DOSE (STUDY DURATION: 36 WK), Route [Inhibitor]: ORAL, Species: RAT, Strain/Sex: F344/FEMALE, Target Tissue: Type of Lesion: URINARY BLADDER: TUMOR, Dose [Carcinogen]: 150 MG IN 0.5 ML 20% ETHANOL 2X/WK FOR 8 WK (STUDY DURATION: 36 WK), Promoter: NONE)?
**A.** 17/30 (57%), 6/29 (21%), 63%, significance level not shown

**Q.** What about the “tumour outcome (control, treated, inhibition, significance)” value (Carcinogen: N-BUTYL-N-N(4-4-HYDROXYBUTYL)-NITROSAMINE [3817-11-6], Dose [Inhibitor]: 1250 MG/KG IN DIET FOR 36 WK BEGINNING 1 WK PRIOR TO FIRST CARCINOGEN DOSE (STUDY DURATION: 36 WK), Route [Inhibitor]: ORAL, Species: MOUSE, Strain/Sex: B6D2F1/MALE, Target Tissue: Type of Lesion: URINARY BLADDER: TUMOR, Dose [Carcinogen]: 7.5 MG IN 0.1 ML 20% ETHANOL 1X/WK FOR 12 WK (STUDY DURATION: 36 WK), Promoter: NONE) of the same compound?
**A.** 51%, 12%, 76%, significance level not shown

**Q.** And the outcome (Carcinogen: N-nitrosodiethylamine (55-18-5), Dose [Inhibitor]: 1500 mg/kg in diet for 38 wk, study duration 38 wk, Route [Inhibitor]: Oral, Species: Rat, Strain/Sex: Wistar/Male, Target Tissue: Type of Lesion: Liver: Neoplasia, Dose [Carcinogen]: 100 mg/l in drinking water for 4 mo, Promoter: None)?
**A.** 91.7, 65.2, p<0.05

**Q.** For `c1cnc2c(c1)ccc1cccnc12`, which “tumour outcome (control, treated, inhibition, significance)” value (Dose [Inhibitor]: 0, 15 MG/KG BW EVERY OTHER DAY BEGINNING 1 WK AFTER CARCINOGEN DOSING THROUGH WK 52 WK (STUDY DURATION: 52 WK), Route [Inhibitor]: INTRAPERITONEAL, Species: RAT, Strain/Sex: WISTAR/MALE, Target Tissue: Type of Lesion: STOMACH: ADENOCARCINOMA, Dose [Carcinogen]: 25 UG/ML IN DRINKING WATER FOR 25 WK, Promoter: SODIUM CHLORIDE (7647-14-5)) is on record?
**A.** 19/20 (95%), 9/20 (45%), 53%, p< 0.001

**Q.** And the “tumour outcome (control, treated, inhibition, significance)” value (Dose [Inhibitor]: 0, 30 MG/KG BW EVERY OTHER DAY BEGINNING 1 WK AFTER CARCINOGEN DOSING THROUGH WK 52 WK (STUDY DURATION: 52 WK), Route [Inhibitor]: INTRAPERITONEAL, Species: RAT, Strain/Sex: WISTAR/MALE, Target Tissue: Type of Lesion: STOMACH: ADENOCARCINOMA, Dose [Carcinogen]: 25 UG/ML IN DRINKING WATER FOR 25 WK, Promoter: SODIUM CHLORIDE (7647-14-5))?
**A.** 19/20 (95%), 7/20 (35%), 63%, p< 0.01

**Q.** What does the source list for `O=C(O)/C=C/c1ccccc1O`?
**A.** tumour outcome (control, treated, inhibition, significance) (Carcinogen: BENZO[A]PYRENE, 50-32-8, Dose [Inhibitor]: 0.03 MMOL/G OF DIET DAILY STARTING 7 D BEFORE AND CONTINUING THROUGH 3 D AFTER CARCINOGEN TREATMENT FOLLOWED BY OBSERVAT, Route [Inhibitor]: ORAL, Species: MOUSE, Strain/Sex: ICR/FEMALE, Target Tissue: Type of Lesion: FORESTOMACH: NEOPLASM, Dose [Carcinogen]: 1 MG IN 0.2 ML CORN OIL 2/WK FOR 4 WK, Promoter: NONE USED): 100%, 100%, 0%, not significant; tumour outcome (control, treated, inhibition, significance) (Carcinogen: BENZO[A]PYRENE, 50-32-8, Dose [Inhibitor]: 0.06 MMOL/G OF DIET DAILY STARTING 7 D BEFORE AND CONTINUING THROUGH 3 D AFTER CARCINOGEN TREATMENT FOLLOWED BY OBSERVAT, Route [Inhibitor]: ORAL, Species: MOUSE, Strain/Sex: ICR/FEMALE, Target Tissue: Type of Lesion: FORESTOMACH: NEOPLASM, Dose [Carcinogen]: 1 MG IN 0.2 ML CORN OIL 2/WK FOR 4 WK, Promoter: NONE USED): 100%, 84%, 16%, not significant and 97%, 89%, 8%, not significant and 100%, 82%, 18%, not significant

**Q.** For `CCCCC(CC)COC(=O)c1ccccc1C(=O)OCC(CC)CCCC` (stereo unspecified), which “tumour outcome (control, treated, inhibition, significance)” value (Carcinogen: N-NITROSOBIS(2-HYDROXYPROPYL)AMINE, 53609-64-6, Dose [Inhibitor]: 0, 1.2% IN DIET FOR 30 WK BEGINNING POST CARCINOGEN TREATMENT (STUDY DURATION: 35 WK), Route [Inhibitor]: ORAL, Species: HAMSTER, Strain/Sex: SYRIAN/MALE, Target Tissue: Type of Lesion: PANCREAS: ADENOCARCINOMA, Dose [Carcinogen]: 500 MG/KG 1/WK FOR 5 WK, Promoter: NONE USED) is on record?
**A.** 8/17 (47%), 7/19 (37%), 21%, not significant

**Q.** What does the source list for `CC(=O)O[C@@H]1[C@H]2[C@@H](OC(=O)c3ccccc3)[C@@H](OC(=O)c3ccccc3)[C@]3(C)[C@@H](OC(=O)c4ccccc4)[C@@H](OC(=O)c4ccccc4)C[C@@H](C)[C@@]13OC2(C)C`?
**A.** tumour outcome (control, treated, inhibition, significance) (Carcinogen: 7,12-DIMETHYLBENZ[A]ANTHRACENE, 57-97-6, Dose [Inhibitor]: 0, 85 NMOL IN 0.1 ML ACETONE 2/WK APPLIED 1 HR POST EACH PROMOTER DOSE BEGINNING 1 WK POST CARCINOGEN DOSE AND CONTINUIN, Route [Inhibitor]: DERMAL, Species: MOUSE, Strain/Sex: ICR/FEMALE, Target Tissue: Type of Lesion: SKIN: TUMOR, Dose [Carcinogen]: 390 NMOL IN 0.1 ML ACETONE ONCE, Promoter: 12-O-TETRADECANOYLPHORBOL-13-ACETATE, 16561-29-8): 100%, 52%, 48%, not calculated; tumour outcome (control, treated, inhibition, significance) (Carcinogen: 7,12-DIMETHYLBENZ[A]ANTHRACENE, 57-97-6, Dose [Inhibitor]: 0, 85 NMOL IN 0.1 ML ACETONE 2/WK APPLIED 1 HR PRIOR TO EACH PROMOTER DOSE BEGINNING 1 WK POST CARCINOGEN DOSE AND CONTI, Route [Inhibitor]: DERMAL, Species: MOUSE, Strain/Sex: ICR/FEMALE, Target Tissue: Type of Lesion: SKIN: TUMOR, Dose [Carcinogen]: 390 NMOL IN 0.1 ML ACETONE ONCE, Promoter: 12-O-TETRADECANOYLPHORBOL-13-ACETATE, 16561-29-8): 100%, 86%, 14%, not calculated

**Q.** Which “tumour outcome (control, treated, inhibition, significance)” value (Carcinogen: 17BETA-ESTRADIOL, 50-28-2, Dose [Inhibitor]: 0, 0.09% IN DIET BEGINNING 5 D POST CARCINOGEN DOSE (STUDY DURATION: 7.5 MO), Route [Inhibitor]: ORAL, Species: HAMSTER, Strain/Sex: SYRIAN/MALE, Target Tissue: Type of Lesion: KIDNEY: TUMOR, Dose [Carcinogen]: 25 MG PELLET REPLACED WITH A SECOND PELLET AFTER 4 MO, Promoter: NONE USED) does the source give for `O=c1oc2ccccc2c(O)c1Cc1c(O)c2ccccc2oc1=O` here?
**A.** 13/13 (100%), 7/12 (58%), 42%, p<0.05
